This passage reports IC50 and GI50 results from paper PMC8624998, “Synthesis and Antiproliferative Evaluation of 3-Chloroazetidin-2-ones with Antimitotic Activity: Heterocyclic Bridged Analogues of Combretastatin A-4” (Pharmaceuticals, 2021).

Molecules are shown by their SMILES. Where two headings read alike, the source gives them in different places.

In one test the test system is HL-60 cells. Briefly: Cell viability assay, antiproliferative activity. It counts as cell-based. The procedure: (§1) […]. The corresponding values for 10e in these cell lines were 161 nM (HL-60), 55 nM (SW480) and 135 nM (HT-29). […] […]. SW480 colon cells expressed low levels of the UDP-glucuronosyltransferase (UGT) protein compared to expression levels in HT-29 cells. […] […].
(§2) The human breast carcinoma cell line MCF-7 was purchased from the European Collection of Animal Cell Cultures (ECACC). Triple negative breast cancer Hs578T cells and its invasive variant Hs578Ts(i)8 were a kind gift from Dr. Susan McDonnell, School of Chemical and Bioprocess Engineering, University College Dublin. U266 cells were a gift from Dr. Tony McElligott, School of Medicine, St James’s Hospital, Trinity College Dublin. HT-29 cells were purchased from the European Collection of Cell Cultures (originating from a human adenocarcinoma of the colon). The human breast carcinoma cell line MDA-MB-231 and the HL-60 cells derived from a patient with acute myeloid leukaemia were both obtained from ECACC (Salisbury, UK). The SW-480 cells were a kind gift from Dr. Brian Flood, School of Biochemistry and Immunology, Trinity College Dublin. HEK-293T (normal epithelial embryonic kidney cells) were cultured in Dulbecco’s Modified Eagle’s Medium (DMEM) with GlutaMAXTM-I in the absence of non-essential amino acids. Human breast cancer MCF-7 cells and multiple myeloma U266 cells were cultured in Minimum Essential Media (MEM) with GlutaMAX™-I, supplemented with 1% (v/v) non-essential amino acids, 10% 2(v/v) foetal bovine serum (FBS) and 1% (v/v) penicillin/streptomycin 5000 U/mL. MDA-MB-231 cells were maintained in DMEM supplemented with 10% (v/v) foetal bovine serum, 2 mM L-glutamine and 100 μg/mL penicillin/streptomycin (complete medium). Colon cancer HT-29 and SW-480 and triple negative breast cancer Hs578T and its invasive variant Hs578T8i were cultured in DMEM with GlutaMAX™-I, with the same supplement in the absence of non-essential amino acids. Leukaemia HL-60 cancer cells were cultured in Roswell Park Memorial Institute Media (RPMI-1640) with GlutaMAX™-I, supplemented with 10% FCS media, and 100 μg/mL penicillin/streptomycin as above. Cell numbers were monitored using a haemocytometer. Cell culture flasks were incubated in a humidified incubator (5% CO2/95% air) at 37 °C. All cell lines were sub-cultured three times per week with trypsinisation using TrypLE Express (1X) required for adherent cell lines.
(§3) . All stock solutions and serial dilution in ethanol/DMSO were stored at -20 °C. All cells were seeded at a density of 2.5 × 10^4 cells/mL in a 96-well plate (200 μL per well). The cells were incubated in a […] atmosphere at 37 °C for 24 h, then treated with test compound (2 μL of stock solutions per 200-microlitre well) in ethanol to obtain a concentration range of 1 nM–200 μM for the study. The plates were then re-incubated for a further 72 h. Control wells contained an equivalent volume of the vehicle ethanol or DMSO (1% v/v). MTT cell viability assay: The culture medium was removed, and the cells were washed with phosphate buffered saline (PBS, […]). MTT (dissolved in PBS, […]) was added to obtain a final concentration of MTT (1 mg/mL). Cells were incubated at 37 °C for 3 h in the dark. Solubilisation was commenced by the addition of DMSO ([…]) and the cells were maintained at 20 °C in the dark for 20 min before reading the absorbance to ensure complete colour diffusion. The absorbance value of control cells (no added compound) was set to 100% cell viability and absorbance versus cell density per well was determined to assess cell viability using Graph-Pad Prism software. AlamarBlue cell viability assay: Cells were seeded in 96-well plates (e.g., MCF-7, 5 × 10^3 cells/well) and (HT-29 cells, 1 × 10^3 cells/well) and (HL-60 cells, 1 × 10^4 cells/well) with a total volume per well of 200 µL. After 24 h, cells were treated in triplicate with serial dilutions of CA-4 or β-lactam analogues (0.001–100 μM), medium alone or vehicle (1% ethanol (v/v)). […]

In a further test the test system is HT-29 cells. Briefly: Cell viability assay, antiproliferative activity. It counts as cell-based. How it is done: as §1, §2, §3
Another test deals with HCT-2998. The test can be described thus: NCI-60 5 dose screen, Colon Cancer. Conditions: Homo sapiens. It is filed as cell-based.
Another test relates to UO-31. Briefly: NCI-60 5 dose screen, Renal Cancer. It is filed as cell-based. Conditions: Homo sapiens.
Another test has as its system LOX IMV1. Briefly: NCI-60 5 dose screen, Melanoma. It counts as cell-based. Conditions: Homo sapiens.
A further test concerns UACC-62. Briefly: NCI-60 5 dose screen, Melanoma. It is filed as cell-based. The following applies: Homo sapiens.
In a further test the test system is HS 578T. Briefly: NCI-60 5 dose screen, Breast Cancer. Conditions: Homo sapiens. It is filed as cell-based.
The test system of a further test is SK-OV-3. Briefly: NCI-60 5 dose screen, Ovarian Cancer. The following applies: Homo sapiens. It is filed as cell-based.
Another test relates to SN12C. The test can be described thus: NCI-60 5 dose screen, Renal Cancer. It is filed as cell-based. Conditions: Homo sapiens.
Another test has as its system MCF-7 cells. Briefly: Cell viability assay (MTT/AlamarBlue), antiproliferative activity. The following applies: read-out: IC50 (MCF-7, 72 h). It counts as cell-based, human. The essentials: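 MCF-7 cells seeded, left 24 h at 37 °C, then exposed 72 h to compound (1 nM–200 μM, or 0.001–100 μM) in ethanol or DMSO vehicle (≤1% ethanol, 0.1% DMSO). Viability read by MTT (1 mg/mL final, 3 h) or AlamarBlue (10% v/v, 3–5 h), relative to untreated controls as 100%.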
Background: Resazurin is reduced to fluorescent resorufin, in cell work by metabolically active cells.

Another test deals with OVCAR-4. The test can be described thus: NCI-60 5 dose screen, Ovarian Cancer. Conditions: Homo sapiens. It is filed as cell-based.
For the next test, the system named is M14. The test can be described thus: NCI-60 5 dose screen, Melanoma. It counts as cell-based. The following applies: Homo sapiens.
The subject of another test is DU-145. The test can be described thus: NCI-60 5 dose screen, Prostate cancer. It is filed as cell-based. Conditions: Homo sapiens.
In another test the test system is SW-620. The test can be described thus: NCI-60 5 dose screen, Colon Cancer. It is filed as cell-based. Conditions: Homo sapiens.
The next test relates to A498. The test can be described thus: NCI-60 5 dose screen, Renal Cancer. It counts as cell-based. Conditions: Homo sapiens.
The next test relates to UACC-257. The test can be described thus: NCI-60 5 dose screen, Melanoma. It counts as cell-based. The following applies: Homo sapiens.
A further test has as its system EKVX. Briefly: NCI-60 5 dose screen, NSC Lung Cancer. Conditions: Homo sapiens. It counts as cell-based.
The subject of the next test is NCI-H226. The test can be described thus: NCI-60 5 dose screen, NSC Lung Cancer. It counts as cell-based. The following applies: Homo sapiens.
A further test concerns COLO205. Briefly: NCI-60 5 dose screen, Colon Cancer. It is filed as cell-based. The following applies: Homo sapiens, COLO 205.
The test system of the next test is 786-0. Briefly: NCI-60 5 dose screen, Renal Cancer. It is filed as cell-based. The following applies: Homo sapiens.
The subject of another test is NCI-H552. Briefly: NCI-60 5 dose screen, NSC Lung Cancer. The following applies: Homo sapiens. It is filed as cell-based.
Where [1] appears, read: Homo sapiens, HL-60, 72 h; read-out: HL-60 IC50.
The mark [2] stands for this setting: Homo sapiens, HT-29, 72 h; read-out: HT-29 IC50.
Where [3] appears, read: Homo sapiens, MCF7, 72 h, MCF-7, 72 h.

A word on the IC50: it is the concentration that inhibits the measured activity by half. As usually defined, the GI50 is the concentration at which growth is held to half of that of the control. As to `COc1ccc([C@H]2[C@H](Cl)C(=O)N2c2cc(OC)c(OC)c(OC)c2)cc1` (relative stereo) [Compound 10e trans, Trans-3-chloro-1-(3,4,5-trimethoxyphenyl)-4-(4-methoxyphenyl) azetidin-2-one], the IC50 with HL-60 cells (setting [1]) came to 161 ± 20 nM; in the test with HT-29 cells (setting [2]), 135 ± 60 nM; in the test with MCF-7 cells (setting [3]), 56 ± 7 nM. The GI50 stood at 80.4 nM with HCT-2998 (HCT-2998, read-out: GI50); 64.4 nM in the test with UO-31 (read-out: GI50); 67.6 nM with LOX IMV1 (read-out: GI50); 51.8 nM in the test on UACC-62 (read-out: GI50); 55.3 nM in the test on HS 578T (HS 578T, read-out: GI50); 182 nM with SK-OV-3 (read-out: GI50). Further, the GI50 with SN12C (read-out: GI50) turned out to be 83.7 nM; with OVCAR-4 (read-out: GI50) it was 106 nM; in the test with M14 (read-out: GI50), 39.6 nM; in the test on DU-145 (read-out: GI50) it was 44.6 nM; in the test on SW-620 (read-out: GI50), 43.2 nM; in the test on A498 (read-out: GI50), 27.1 nM. For the same compound, the GI50 is 23300 nM in the test on UACC-257 (read-out: GI50); 69.4 nM with EKVX (read-out: GI50); 55.7 nM in the test on NCI-H226 (read-out: GI50); 49.2 nM with COLO205 (COLO205, read-out: GI50); 69.4 nM in the test with 786-0 (read-out: GI50); 20.7 nM in the test with NCI-H552 (NCI-H552, read-out: GI50).

Take `COc1ccc(C2C(Cl)C(=O)N2c2cc(OC)c(OC)c(OC)c2)cc1O` (stereo not shown) [Compound 10n, 3-Chloro-4-(3-hydroxy-4-methoxy-phenyl)-1-(3,4,5-trimethoxyphenyl)azetidin-2-one]: the IC50 in the test on HL-60 cells (setting [1]) was found to be 10 ± 8 nM; in the test on HT-29 cells (setting [2]), 631 ± 30 nM; in the test with MCF-7 cells (setting [3]), 17.5 ± 9 nM; in the test on MCF-7 cells (MCF-7, 72 h) it was 17 ± 9 nM.

In the case of `COc1ccc(C2N(c3cc(OC)c(OC)c(OC)c3)C(=O)C2(Cl)Cl)cc1O` (stereo not shown) [Compound 11n, 3,3-Dichloro-4-(3-hydroxy-4-methoxyphenyl)-1-(3,4,5-trimethoxyphenyl)azetidin-2-one], the IC50 was 16 ± 5 nM with HL-60 cells (Homo sapiens, HL-60, 72 h, read-out: HL-60 IC50); 941 ± 60 nM with HT-29 cells (Homo sapiens, HT-29, 72 h, read-out: HT-29 IC50); 31 ± 4 nM in the test on MCF-7 cells (Homo sapiens, MCF7, 72 h). Also, the GI50 is 53.4 nM in the test on HCT-2998; 82.1 nM with UO-31; 41.5 nM in the test with LOX IMV1; 42.2 nM in the test on UACC-62; 42.8 nM in the test on HS 578T (Hs-578T); 25.4 nM in the test on SK-OV-3. Besides, the GI50 with SN12C was 44.6 nM; in the test with OVCAR-4, 74.1 nM; with M14, 31.3 nM; in the test with DU-145, 35.9 nM; in the test with SW-620 it was 37.6 nM; in the test on A498 it was 22.6 nM. Also, the GI50 worked out at 158 nM with UACC-257; 46.4 nM in the test with EKVX; 36.8 nM with NCI-H226; 2910 nM with COLO205; 41.2 nM with 786-0; 16.4 nM in the test with NCI-H552.

As for `CCSc1ccc(C2C(Br)C(=O)N2c2cc(OC)c(OC)c(OC)c2)cc1` (stereo not shown) [Compound 16d, 3-Bromo-4-(4-(ethylthio)phenyl)-1-(3,4,5-trimethoxyphenyl)azetidin-2-one], the GI50 was determined as 673 nM in the test on HCT-2998 (HCT-2998, read-out: GI50); 342 nM in the test with UO-31 (read-out: GI50); 834 nM in the test with LOX IMV1 (read-out: GI50); 97.2 nM with UACC-62 (read-out: GI50); 229 nM in the test on HS 578T (HS 578T, read-out: GI50); 392 nM in the test on SK-OV-3 (read-out: GI50). The GI50 in the test on SN12C (read-out: GI50) was 925 nM; with OVCAR-4 (read-out: GI50) it was 1430 nM; in the test with M14 (read-out: GI50) it was 128 nM; with DU-145 (read-out: GI50), 349 nM; in the test with SW-620 (read-out: GI50), 236 nM; in the test with A498 (read-out: GI50), 103 nM. Also, the GI50 in the test on UACC-257 (read-out: GI50) was 14300 nM; in the test with EKVX (read-out: GI50), 639 nM; in the test with NCI-H226 (read-out: GI50), 3110 nM; in the test with COLO205 (COLO205, read-out: GI50), 230 nM; in the test with 786-0 (read-out: GI50), 340 nM; in the test with NCI-H552 (NCI-H552, read-out: GI50), 158 nM. Besides, in the test with MCF-7 cells (setting [3]), the IC50 amounted to 1100 ± 100 nM.

Turning to `COc1ccc(/C=C\c2cc(OC)c(OC)c(OC)c2)cc1O` [CA-4, Combretastatin A-4], the IC50 in the test on HL-60 cells (setting [1]) came out at 1.9 ± 0.5 nM; in the test with HL-60 cells (Homo sapiens, HL-60; read-out: HL-60 IC50), 2 nM; in the test with HT-29 cells (Homo sapiens, HT-29; read-out: HT-29 IC50) it was 4160 nM; in the test on MCF-7 cells (setting [3]) it was 3.9 nM; in the test with MCF-7 cells (MCF-7, 72 h) it was 4 nM.
